According to paper PMC10786919, “Design-rules for stapled peptides with in vivo activity and their application to Mdm2/X antagonists” (Nature Communications, 2024):
Values after ≈ are worked out from the molar mass of the structure shown. Read-outs that look alike come from different tables or passages of the source. One block for each molecule: values may come before it. Positions of bridges follow the written chain, without caps; N, C: chain ends. Non-standard residues stand in square brackets, D forms with d. Residues, ends and D or L forms follow the SMILES beside them. Lys(N3) = [N-]=[N+]=NCCCC[C@H](N)C(=O)O; R8 = C=CCCCCCC[C@@](C)(N)C(=O)O; Cba = N[C@@H](CC1CCC1)C(=O)O; S5 = C=CCCC[C@](C)(N)C(=O)O; βAla = NCCC(=O)O

Tests used:
[1] = Solubility assay (kinetic solubility, PBS pH 7); format: physicochemical; conditions: read-out: Solubility
In short: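 Values derive from peak-area ratios of sample versus a 100 µM standard, scaled by that standard's concentration.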

[2] = tested on: cells transiently transfected with the NanoLuc-HaloTag vector; test: in vitro; conditions: for cell entry EC50: 4 h; for Nanoclick permeability assay % Effect: 4Hr
In short: (§1)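 Azido-peptide permeability was read as loss of NanoBRET signal (donor 450 nm, acceptor 610 nm) after adding NanoBret618-azide at 10 μM final.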

[3] = tested on: CellSensor p53RE-bla HCT-116 Cell Line; conditions: 72 h
In short: (§2)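 Compound dilution series (10 points, 3-fold, 10 mM top stock in DMSO) tested on overnight-plated Ca Ski cells in RPMI1640/10% FBS and on blasticidin-selected p53RE-bla HCT-116 cells in McCoy's 5A; read-out was CellTiter-Glo 2.0 luminescence after room-temperature equilibration.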

Ca Ski cell line = conditions: 72 h
In short: as §2

[4] = Lactate dehydrogenase (LDH) release assay; format: cell-based
In short: (§3)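 LDH release, fluorometric membrane-integrity read-out; HCT116 with stable p53-responsive β-lactamase reporter; 8000 cells/well; 0.5% DMSO final; geometric mean, n≥3 biological replicates.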

HCT116 cells = test: Lactate dehydrogenase (LDH) release assay; format: cell-based
In short: as §3

[5] = tested on: p53 responsive β-lactamase reporter in HCT116 cells; test: cells; format: cell-based
In short: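 HCT116 cells stably carrying a p53-responsive β-lactamase reporter, seeded at 8000 cells/well, with 0.5% DMSO final. Reporter activity read by ToxBLAzer Dual Screen. Values are geometric means of at least three biological replicates.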

[6] = Experimental LogD (partition coefficient); conditions: not stated, Partition Coeff LogD
[7] = tested on: Jump-In T-REx CHO-K1 BLA cells; test: cells; format: cell-based; conditions: for EC50: read-out: TETCHO: Counterscreen EC50
[8] = Nanoclick permeability assay
In short: as §1

[9] = pH 7, aqueous buffer, kinetic from dmso stock, pH 7, PBS

Structure (SMILES): CC(=O)N[C@@H](CCCCN=[N+]=[N-])C(=O)NCCC(=O)N[C@@H](CC(C)C)C(=O)N[C@H](C(=O)N[C@@H](Cc1ccccc1)C(=O)N[C@]1(C)CCCCCCC=CCCC[C@@](C)(C(=O)N2CCC[C@H]2C(=O)N2CCC[C@H]2C(=O)N2CCC[C@H]2C(=O)N2CCC[C@H]2C(=O)N2CCC[C@H]2C(=O)N2CCC[C@H]2C(N)=O)NC(=O)[C@H](CC2CCC2)NC(=O)[C@H](CCC(N)=O)NC(=O)[C@H](C)NC(=O)[C@H](Cc2c[nH]c3ccccc23)NC(=O)[C@H](Cc2ccc(O)cc2)NC(=O)[C@H](CCC(=O)O)NC1=O)[C@@H](C)O [MP-094]
solubility kinetic ([1]; pH 7): 158 µM (≈ 367 µg/mL) | cell entry EC50 [2]: 0.942 µM | EC50 [3]: 1.33 µM | EC50 (Ca Ski cell line): > 49.8 µM

cell entry EC50 [2]: 1.35 µM | EC50 [3]: 10.7 µM | EC50 (Ca Ski cell line): 26.7 µM
Structure (SMILES): CC(=O)N[C@@H](CCCCN=[N+]=[N-])C(=O)NCCC(=O)N[C@@H](CC(C)C)C(=O)N[C@H](C(=O)N[C@@H](Cc1ccccc1)C(=O)N[C@]1(C)CCCCCCC=CCCC[C@@](C)(C(=O)N[C@@H](C)C(=O)N[C@@H](C)C(=O)N[C@@H](C)C(=O)N[C@@H](C)C(=O)N[C@@H](C)C(=O)N[C@@H](C)C(=O)N[C@@H](C)C(N)=O)NC(=O)[C@H](CC2CCC2)NC(=O)[C@H](CCC(N)=O)NC(=O)[C@H](C)NC(=O)[C@H](Cc2c[nH]c3ccccc23)NC(=O)[C@H](Cc2ccc(O)cc2)NC(=O)[C@H](CCC(=O)O)NC1=O)[C@@H](C)O [MP-471]

Structure (SMILES): CC(=O)N[C@@H](CCCCN=[N+]=[N-])C(=O)NCCC(=O)N[C@@H](CC(C)C)C(=O)N[C@H](C(=O)N[C@@H](Cc1ccccc1)C(=O)N[C@]1(C)CCCCCCC=CCCC[C@@](C)(C(=O)N[C@@H](C)C(=O)N[C@@H](CC(N)=O)C(=O)N[C@@H](C)C(=O)N[C@@H](C)C(=O)N[C@@H](C)C(=O)N[C@H](C)C(N)=O)NC(=O)[C@H](CC2CCC2)NC(=O)[C@H](CCC(N)=O)NC(=O)[C@H](C)NC(=O)[C@H](Cc2c[nH]c3ccccc23)NC(=O)[C@H](Cc2ccc(O)cc2)NC(=O)[C@H](CCC(=O)O)NC1=O)[C@@H](C)O [MP-967, AZIDE-KK-ATSP-7041 (L1A,T2A,E5A,Q9A,S12A)] (Ac-[Lys(N3)][βAla]LTF[R8]EYWAQ[Cba][S5]ANAAA[dA]-NH2; staple 6-13)
EC50 ([4]; 0% FBS 4Hr, read-out: LDH: Cytotoxicity assay EC50): > 50.7 µM | EC50 ([4]; 10% FBS 16Hr, read-out: LDH: Cytotoxicity assay EC50): > 50.7 µM | LDH: Cytotoxicity assay % Effect (HCT116 cells; 0% FBS 4Hr): 5.243% | LDH: Cytotoxicity assay % Effect (HCT116 cells; 10% FBS 16Hr): 11.93% | solubility kinetic [1, 9]: 161 µM (≈ 356 µg/mL) | p53 reporter assay % Effect ([5]; 0% FBS 4Hr): 98.42% | EC50 ([5]; 0% FBS 4Hr, read-out: p53 reporter assay EC50): 0.524 µM | p53 reporter assay % Effect ([5]; 10% FBS 16Hr): 97.47% | EC50 ([5]; 10% FBS 16Hr, read-out: p53 reporter assay EC50): 0.937 µM | logD [6]: 3.08 | TETCHO: Counterscreen % Effect ([7]; 0% FBS 4Hr): -0.6324% | EC50 ([7]; 0% FBS 4Hr): > 50.4 µM | TETCHO: Counterscreen % Effect ([7]; 10% FBS 16Hr): -28.5% | EC50 ([7]; 10% FBS 16Hr): > 50.4 µM | cell entry EC50 [8]: 3.89 µM | Nanoclick permeability assay % Effect [2]: 137.2%

Structure (SMILES): CC(=O)N[C@@H](CCCCN=[N+]=[N-])C(=O)NCCC(=O)N[C@@H](CC(C)C)C(=O)N[C@H](C(=O)N[C@@H](CO)C(=O)N[C@]1(C)CCCCCCC=CCCC[C@@](C)(C(=O)N[C@@H](CO)C(=O)N[C@@H](C)C(=O)N[C@@H](C)C(N)=O)NC(=O)[C@H](CO)NC(=O)[C@H](CCC(N)=O)NC(=O)[C@H](C)NC(=O)[C@H](CO)NC(=O)[C@H](Cc2ccc(O)cc2)NC(=O)[C@H](CCC(=O)O)NC1=O)[C@@H](C)O [MP-3352] (Ac-[Lys(N3)][βAla]LTS[R8]EYSAQS[S5]SAA-NH2; staple 6-13)
EC50 ([4]; LDH: Cytotoxicity assay: EC50): > 50.6 µM | LDH: Cytotoxicity assay: % Effect (HCT116 cells): -2.39% | solubility kinetic [1, 9]: 28 µM (≈ 49.6 µg/mL) | EC50 ([5]; 0% FBS 4Hr, read-out: p53 reporter assay: EC50): > 50.6 µM | logD [6]: 1.55 | TETCHO: Counterscreen % Effect ([7]; 0% FBS 4Hr): 0.41% | EC50 ([7]; 0% FBS 4Hr): > 50.6 µM | cell entry EC50 ([8]; Nanoclick permeability assay EC50): 8.79 µM | Nanoclick permeability assay % Effect [2]: 36.66% | EPSA (physchem): 197 A^2
